Where a name gives a salt, the structure may show the parent alone. Read-outs that look alike come from different tables or passages of the source.
What was measured:
[1] = system: P. falciparum CQ-sensitive strain 3D7; experiment: In vitro antiplasmodial activity, SYBR Green I fluorescence-based method, strain 3D7; type: cell-based; settings: Plasmodium falciparum, read-out: P. falciparum strains IC50 values, 3D7
In short: (§1)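 P. falciparum 3D7 and W2 cultured in human erythrocytes in RPMI with 0.5% Albumax I at 37 °C, exposed 48 h to compounds tested […]. Parasite DNA read by SYBR Green I fluorescence (ex 485/em 535 nm); IC50 by non-linear regression, mean of three independent experiments.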

[2] = system: Plasmodium telomeric sequence FPf1T G-quadruplex; experiment: FRET melting experiments, FPf1T; type: binding, P. falciparum; settings: K+ conditions
Protocol: (§2) These were performed with dual-labelled oligonucleotides mimicking the Plasmodium telomeric sequences FPf1T [FAM-5′(GGGTTTA)3-GGG3′-TAMRA] and FPf8T [FAM-5′ (GGGTTCA)3GGG3′-TAMRA], the Trypanosoma 9 and 11 chromosomic sequence FTrypBT (also named FEBR1T) [FAM-5′[…]3′-TAMRA], the human telomeric sequence F21T [FAM-(GGGTTA)3-GGG3′-TAMRA], and the human duplex sequence FdxT [FAM5′-[…]-hexaethyleneglycol-[…]3′-TAMRA][51]^,[52]. The oligonucleotides were pre-folded in 10 mM lithium cacodylate buffer (pH 7.2), with 10 mM KCl and 90 mM LiCl (K^+condition). The FAM emissions were recorded at 516 nm using a 492-nm excitation wavelength in the absence and presence of a single compound as a function of temperature (25–95 °C) in 96-well microplates by using a Stratagene MX3000P real-time PCR device at a rate of 1 °C·min^−1. Data were normalised between 0 and 1, and the required temperature for half-denaturation of oligonucleotides corresponding to the emission value of 0.5 was taken as the Tm. […] For each compound, three independent experiments were carried out.

[3] = system: Plasmodium telomeric sequence FPf8T G-quadruplex; experiment: FRET melting experiments, FPf8T; type: binding, P. falciparum; settings: K+ conditions
Protocol: as §2

[4] = system: human duplex sequence FdxT; experiment: FRET melting experiments, FdxT duplex control; type: binding; settings: K+ conditions
Protocol: as §2

[5] = system: human telomeric sequence F21T G-quadruplex; experiment: FRET melting experiments, F21T; type: binding; settings: K+ conditions
Protocol: as §2

[6] = system: L. donovani (MHOM/IN/00/DEVI) promastigotes; experiment: In vitro antileishmanial activity, MTT assay on promastigotes; type: cell-based; settings: Leishmania donovani, 72 h incubation, ≥10 = no activity noted at the highest concentration tested
In short: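 Log-phase L. donovani MHOM/IN/00/DEVI promastigotes (10^6/ml, Schneider's + 20% FCS) were exposed to graded compound concentrations (DMSO <0.5% v/v) for 72 h at 27 °C, in duplicate. Growth measured by MTT reduction (4 h, A570 nm); IC50 obtained by regression.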

[7] = system: T. brucei brucei AnTat 1.9; experiment: In vitro antitrypanosomal activity, Alamar Blue assay; type: cell-based; settings: Trypanosoma brucei; slender bloodstream trypomastigotes, AnTat 1.9 strain; read-out: Trypanosoma brucei brucei IC50 values, Trypanos Antat 1.9
In short: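 Viability read-out: resazurin (Alamar Blue) fluorescence, 530 nm excitation/590 nm emission, after 5 h dye exposure following 69 h compound incubation at 37 °C, 5% CO2, 2000 parasites per well, doses in duplicate. IC50 values fitted nonlinearly, three independent runs.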

[8] = Cytotoxicity evaluation, MTT; type: cell-based, human; settings: human
In short: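 HepG2 hepatocarcinoma cells exposed to compound in duplicate, then viability measured by MTT reduction (0.5 mg/ml), formazan dissolved in DMSO and read at 570 nm against 630 nm. Viability expressed as percent of untreated cells; CC50 taken from dose-response curve, doxorubicin as positive control.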

[9] = system: Trypanosoma 9 and 11 chromosomic sequence FTrypBT (FEBR1T) G-quadruplex; experiment: FRET melting experiments, FtrypBT; type: binding, T. brucei brucei; settings: K+ conditions
Protocol: as §2

[10] = system: P. falciparum CQ-resistant strain W2; experiment: In vitro antiplasmodial activity, SYBR Green I fluorescence-based method, strain W2; type: cell-based; settings: Plasmodium falciparum, read-out: P. falciparum strains IC50 values, W2
In short: as §1

[11] = chloroquine-sensitive strain 3D7, 48 h incubation
[12] = 2 μM compound, 0.2 μM oligonucleotide

## CN(C)CCCNCc1ccc(-c2nc(-c3ccc(CNCCCN(C)C)cc3)c3ccccc3n2)cc1 [Compound 3b, 2,4-Bis{4-[(3-dimethylaminopropyl)aminomethyl]phenyl}quinazoline]
[1]; [11]
  IC50: 620 ± 77 nM
[2]; [12]
  ΔTm FPf1T: 11.6 ± 1.1 °C
[3]; [12]
  ΔTm FPf8T: 11.2 ± 0.8 °C
[4]; [12]
  ΔTm FdxT: 0.1 ± 0.1 °C
[5]; [12]
  ΔTm F21T: 13.2 ± 0.3 °C
[6]
  IC50: ≥ 10000 nM
[7]
  IC50: 1180 ± 57 nM
[8]
  CC50 at 72 h: 4010 ± 800 nM
[9]; [12]
  ΔTm FtrypBT: 10.0 ± 0.4 °C

## OC(c1cc(C(F)(F)F)nc2c(C(F)(F)F)cccc12)C1CCCCN1 (stereo not drawn) [Mefloquine, reference compound]
[1]; [11]
  IC50: 60 ± 3 nM
[2]; tested at 1 μM
  ΔTm FPf1T: 3.1 ± 0.5 °C
[3]; tested at 1 μM
  ΔTm FPf8T: 6.6 ± 2.3 °C
[5]; tested at 1 μM
  ΔTm F21T: 2.6 ± 0.5 °C
[10]; chloroquine-resistant strain W2, 48 h incubation
  IC50: 16 ± 2 nM

## c1ccc2c(-c3ccc(CNCCN4CCOCC4)cc3)nc(-c3ccc(CNCCN4CCOCC4)cc3)nc2c1 [Compound 3g, 2,4-Bis{4-[(2-morpholinoethyl)aminomethyl]phenyl}quinazoline]
[1]; [11]
  IC50: 150 ± 27 nM
[2]; [12]
  ΔTm FPf1T: 1.4 ± 0.1 °C
[3]; [12]
  ΔTm FPf8T: 1.2 ± 0.4 °C
[4]; [12]
  ΔTm FdxT: 0.3 ± 0.2 °C
[5]; [12]
  ΔTm F21T: 4.2 ± 2.1 °C
[6]
  IC50: ≥ 10000 nM
[7]
  IC50: 1270 ± 632 nM
[8]
  CC50 at 72 h: 4080 ± 600 nM
[9]; [12]
  ΔTm FtrypBT: 1.0 ± 0.5 °C

## c1cc(CNCCN2CCOCC2)cc(-c2cc(-c3cccc(CNCCN4CCOCC4)c3)c3ccccc3n2)c1 [Compound 1t, 2,4-Bis{3-[(2-morpholinoethyl)aminomethyl]phenyl}quinoline]
[1]; [11]
  IC50: 230 ± 21 nM
[2]; [12]
  ΔTm FPf1T: 0.9 ± 0.2 °C
[3]; [12]
  ΔTm FPf8T: 0.6 ± 0.7 °C
[4]; [12]
  ΔTm FdxT: −1.6 ± 0.4 °C
[5]; [12]
  ΔTm F21T: 0.3 ± 0.3 °C
[6]
  IC50: ≥ 10000 nM
[7]
  IC50: 460 ± 120 nM
[8]
  CC50 at 72 h: 3930 ± 1100 nM
[9]; [12]
  ΔTm FtrypBT: 0.6 ± 0.4 °C

## c1cc(CNCCCN2CCOCC2)cc(-c2cc(-c3cccc(CNCCCN4CCOCC4)c3)c3ccccc3n2)c1 [Compound 1s, 2,4-Bis{3-[(3-morpholinopropyl)aminomethyl]phenyl}quinoline]
[1]; [11]
  IC50: 210 ± 40 nM
[2]; [12]
  ΔTm FPf1T: 3.0 ± 0.4 °C
[3]; [12]
  ΔTm FPf8T: 2.8 ± 0.5 °C
[4]; [12]
  ΔTm FdxT: −1.5 ± 0.4 °C
[5]; [12]
  ΔTm F21T: 2.5 ± 0.1 °C
[6]
  IC50: ≥ 10000 nM
[7]
  IC50: 730 ± 264 nM
[8]
  CC50 at 72 h: 2630 ± 500 nM
[9]; [12]
  ΔTm FtrypBT: 1.8 ± 0.7 °C

## c1ccc2c(-c3ccc(CNCCCN4CCOCC4)cc3)cc(-c3ccc(CNCCCN4CCOCC4)cc3)nc2c1 [Compound 1g, 2,4-Bis{4-[(3-morpholinopropyl)aminomethyl]phenyl}quinoline]
[1]; [11]
  IC50: 99 ± 7 nM
[2]; [12]
  ΔTm FPf1T: 3.7 ± 0.3 °C
[3]; [12]
  ΔTm FPf8T: 3.7 ± 0.6 °C
[4]; [12]
  ΔTm FdxT: −1.8 ± 0.4 °C
[5]; [12]
  ΔTm F21T: 7.1 ± 2.7 °C
[6]
  IC50: ≥ 10000 nM
[7]
  IC50: 380 ± 45 nM
[8]
  CC50 at 72 h: 1470 ± 300 nM
[9]; [12]
  ΔTm FtrypBT: 2.0 ± 0.2 °C

## C[n+]1cc(NC(=O)c2ccc3ccc4ccc(C(=O)Nc5cc6ccccc6[n+](C)c5)nc4c3n2)cc2ccccc21 [PhenDC3, reference compound]
[2]; tested at 0.5 μM
  ΔTm FPf1T: 24.6 ± 0.1 °C
[3]; tested at 0.5 μM
  ΔTm FPf8T: 24.7 ± 0.2 °C
[4]; tested at 0.5 μM
  ΔTm FdxT: 0.1 ± 0.2 °C
[5]; tested at 0.5 μM
  ΔTm F21T: 26.3 ± 0.1 °C
[9]; tested at 0.5 μM
  ΔTm FtrypBT: 19.2 ± 0.2 °C

## CN1CCN(CCCCNCc2ccc(-c3nc(-c4ccc(CNCCCCN5CCN(C)CC5)cc4)c4ccccc4n3)cc2)CC1 (as salt: (cooh)2) [Compound 3d, 2,4-Bis{4-[(4–(4-methylpiperazin-1-yl)butyl)aminomethyl]phenyl}quinazoline]
other
  melting point: 223 to 225 °C

## CCN(CC)CCCC(C)Nc1ccnc2cc(Cl)ccc12 (stereo not drawn) [Chloroquine, reference compound]
[1]; 3D7, 48 h
  IC50: 110 ± 10 nM
[2]; tested at 1 μM
  ΔTm FPf1T: 1.9 ± 0.1 °C
[3]; tested at 1 μM
  ΔTm FPf8T: 2.4 ± 1.2 °C
[5]; tested at 1 μM
  ΔTm F21T: 2.4 ± 1.1 °C
[10]; W2, 48 h
  IC50: 400 ± 40 nM

## c1cc(CNCCN2CCOCC2)cc(-c2nc(-c3cccc(CNCCN4CCOCC4)c3)c3ccccc3n2)c1 (as salt: (cooh)2) [Compound 3v, 2,4-Bis{3-[(2-morpholinoethyl)aminomethyl]phenyl}quinazoline]
other
  melting point: 234 to 236 °C

## COc1ccc2cc(-c3ccc(CNCCCCN(C)C)cc3)nc(-c3ccc(CNCCCCN(C)C)cc3)c2c1 (as salt: (cooh)2) [Compound 2e, 7-Methoxy-1,3-bis{4-[(4-dimethylaminobutyl)aminomethyl]phenyl}isoquinoline]
other
  melting point: 157 to 159 °C

## COc1ccc2nc(-c3ccc(CNCCCN4CCN(C)CC4)cc3)nc(-c3ccc(CNCCCN4CCN(C)CC4)cc3)c2c1 (as salt: (cooh)2) [Compound 3k, 6-Methoxy-2,4-bis{4-[(3–(4-methylpiperazin-1-yl)propyl)aminomethyl]phenyl}quinazoline]
other
  melting point: 227 to 229 °C

## CN1CCN(CCNCc2ccc(-c3cc(-c4ccc(CNCCN5CCN(C)CC5)cc4)c4ccccc4n3)cc2)CC1 (as salt: (cooh)2) [Compound 1f, 2,4-Bis{4-[(2–(4-methylpiperazin-1-yl)ethyl)aminomethyl]phenyl}quinoline]
other
  melting point: 240 to 242 °C

## COc1ccc2c(-c3ccc(CNCCCCN(C)C)cc3)cc(-c3ccc(CNCCCCN(C)C)cc3)nc2c1 (as salt: (cooh)2) [Compound 1m, 7-Methoxy-2,4-bis{4-[(4-dimethylaminobutyl)aminomethyl]phenyl}quinoline]
other
  melting point: 208 to 210 °C

## CN(C)CCCNCc1ccc(-c2cc3ccccc3c(-c3ccc(CNCCCN(C)C)cc3)n2)cc1 (as salt: (cooh)2) [Compound 2b, 1,3-Bis{4-[(3-dimethylaminopropyl)aminomethyl]phenyl}isoquinoline]
other
  melting point: 186 to 188 °C

## CN(C)CCCNCc1cccc(-c2nc(-c3cccc(CNCCCN(C)C)c3)c3ccccc3n2)c1 (as salt: (cooh)2) [Compound 3s, 2,4-Bis{3-[(3-dimethylaminopropyl)aminomethyl]phenyl}quinazoline]
other
  melting point: > 260 °C

## COc1ccc2c(-c3ccc(CNCCN(C)C)cc3)nc(-c3ccc(CNCCN(C)C)cc3)nc2c1 (as salt: (cooh)2) [Compound 3o, 7-Methoxy-2,4-bis{4-[(2-dimethylaminoethyl)aminomethyl]phenyl}quinazoline]
other
  melting point: 234 to 236 °C

Reference: paper PMC6968685 (Journal of Enzyme Inhibition and Medicinal Chemistry, 2020)
